Experimental data as given in patent publication EP0200942B1, “New derivatives of an aminoketone” (NIPPON KAYAKU KABUSHIKI KAISHA, priority 1985, dated 1986).

Legend:
[1] = system: ischemic decerebrate rigidity; assay: Action to ischemic decerebrate rigidity of rat (Fukuda et al method); assay type: in vivo, male Wistar rat; settings: intravenous administration 3.5 mg/kg; average forepaw tension for 10 minutes at peak period after vs before administration
Source text: 2. Action to ischemic decerebrate rigidity of rat
The effects on the ischemic decerebrate rigidity were investigated by using Fukuda et al method (H. Fukuda, T. Ito, S. Hashimoto and Y. Kudo: Japan. J. Pharmacol., 24, 810 (1974)). The rigidity is due to hyperactivity of α-motorneurones. The rigid animals provide a good experimental model for some type of spasticity in man.
A tracheal cannula was inserted in each of male Wistar rat under ether anesthesia. Both of common carotid arteries were ligated and the basilar artery was cauterized with a bipolar coagulator to block the blood circulation and to prepare a rigidity sample. The rigidity was recorded as described below. A rat was fixed on its back on a fixing stand and its forepaws were allowed to grisp an end of a celluloid plate provided with strain gauges on both sides thereof. A change of the resistance observed when the celluloid plate was forced up by the rigidity of the forepaws was recorded as a tension through a bridge circuit on a self-balancing recorder. A rigidity inhibition rate was calculated according to the following equation: [formula] when C represents an average tension (g) for 10 minutes at peak period before the administration of a test compound and D represents an average tension (g) for 10 minutes at peak period recorded after the intravenous administration 3.5 mg/kg of a test compound.

[2] = Acute toxicity, LD50 in mice intravenously; settings: mouse, in vivo, iv, read-out: LD₅₀ (Mice; i.v.)
Description: LD₅₀ (mg/kg) of the each test compound given to mice intravenously was determined.

[3] = system: Spinal reflex (flexor reflex); assay: Spinal reflex (flexor reflex) inhibitory action, evoked electromyogram in anesthetized rats; assay type: in vivo, male rats; Wistar strain; settings: intravenous (i.v.) administration of 5 mg/kg in physiological saline; average amplitude over 30 minutes after vs 10 minutes before administration; rats anesthetized with urethane and α-chloralose
Description: 1. Spinal reflex (flexor reflex) inhibitory action
Animals (male rats; Wistar strain) were anesthetized with urethane and α-chloralose, and their tibial nerve was dissected, and stimulated (0.1 msec, 0.1 Hz, ultra-maximum stimulation) by the stimulator (Model MSE-3; Nippon Koden). […] The amplitude of this evoked electromyogram was recorded on a pen recorder through a peak holder.The activity of the compounds was expressed by flexor reflex inhibition rate. That is, the flexor reflex inhibition rate was calculated from the following equation (A): [formula] wherein A is the average amplitude of the electromyogram in the period of 10 minuts before the administration of the test compound, and B is the average amplitude of the electromyogram in the period of 30 minutes after the intravenous (i.v.) administration of 5 mg/kg of the test compound dissolved in a physiological saline solution.

SMILES	Inhibition rate (%) (rigidity inhibition rate) [1]	LD50 [2]	Inhibition rate (%) (flexor reflex inhibition rate) [3]
COc1ccc(C(=O)C(C)CN2CCCC2)c2c1CCCC2 (stereo not drawn) [2-1, 1-(4-Methoxy-5,6,7,8-tetrahydro-1-naphthyl)-2-methyl-3-pyrrolidino-1-propanone]	46.1%	38.1 mg/kg	53.6%
CCC(CN1CCCC1)C(=O)c1ccc(OC)c2c1CCCC2 (stereo not drawn) [2-11, 1-(4-Methoxy-5,6,7,8-tetrahydro-1-naphthyl)-2-ethyl-3-pyrrolidino-1-propanone]	53.9%	35.4 mg/kg	50.0%
CC(CN1CCCC1)C(=O)c1ccc(C(F)(F)F)cc1 (stereo not drawn) [4-1, 1-(4-Trifluoromethylphenyl)-2-methyl-3-pyrrolidino-1-propanone]	23.6%	61.1 mg/kg	40.3%
